Experimental data: patent publication US20210132079A1, “ANTIBODY” (UCB Biopharma SRL, priority 2015, published 2021)
Entries after “also recorded” stand apart in the source; their conditions may differ.

Assays:
[1] = biological target: T1, soluble form of TNFα (Homo sapiens, UniProt P01375); assay: SPR on Biacore 4000 against immobilised TNFα; assay type: binding; settings: concentration of up to 100 μM
T1 construct: immobilised soluble form of CD40L and the soluble form of TNFα by SPR
Procedure: (§1) In another experiment, BIO8898 was tested against the immobilised soluble form of CD40L and the soluble form of TNFα by SPR on a Biacore 4000 machine.

[2] = biological target: T2, soluble form of CD40L (Homo sapiens, UniProt P29965); assay: SPR on Biacore 4000 against immobilised CD40L; settings: read-out: geomean IC50 for binding against CD40L
T2 sequence (P29965 113-261 limits assumed): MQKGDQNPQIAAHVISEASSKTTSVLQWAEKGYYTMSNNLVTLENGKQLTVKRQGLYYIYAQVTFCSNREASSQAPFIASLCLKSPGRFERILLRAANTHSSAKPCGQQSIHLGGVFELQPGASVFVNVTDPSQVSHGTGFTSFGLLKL
Procedure: as §1

T1 sequence (P01375 77-233 limits assumed): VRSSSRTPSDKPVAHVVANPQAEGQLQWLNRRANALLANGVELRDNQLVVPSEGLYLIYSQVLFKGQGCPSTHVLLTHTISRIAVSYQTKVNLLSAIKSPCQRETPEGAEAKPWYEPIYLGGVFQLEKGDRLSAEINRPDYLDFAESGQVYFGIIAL

Question: For O=C(NCc1cccc(-c2ccccc2)c1)c1cc(-c2cc(C(=O)NC(C(=O)O)C3CCCCC3)nc(C(=O)N3CCCC3CN3CCCC3)c2)cc(C(=O)N2CCCC2CN2CCCC2)n1 (centres unmarked) [BIO8898], which “binding to TNFα” value [1] is on record?
Answer: Its value is “found not to bind; also recorded: no binding was detected”.

Question: What about the IC50 [2] of the same compound?
Answer: The IC50 was 17 µM.
